Assay results taken from a melting point compilation (Tetko et al.; mined from patent text by program, amines drawn as free bases though some values may be those of a salt).

Row | Compound | melting point [°C]
1 | COc1ccccc1C(=O)Nc1cc(C(=O)NCc2ccccc2)ccn1 | 205 to 207
2 | Cc1c(Cl)ccc(NC(=O)CN2C(=O)c3ccccc3C2=O)c1Cl | 245 to 246
3 | COc1ccc(/C=C/S(=O)(=O)Nc2ccc(S(N)(=O)=O)cc2)cc1 | 181 to 183
4 | Cc1c(C(F)(F)C(F)(F)C(F)(F)F)ncn1-c1ncc(C(F)(F)F)cc1Cl | 62.5
5 | Fc1ccc(Cn2c(NC3CCN(CCNc4nc5ccccc5n4Cc4ccc(Cl)c(Cl)c4)CC3)nc3ccccc32)cc1 | 113
6 | CC(=O)C1=CCC2C3CCC4CC(O)CCC4(C)C3CC(O)C12C (stereo not given) | 203 to 205
7 | CC(C)(C)C(=O)N[Si](C)(C)C | 101 to 106
8 | COC(=O)C1Cc2c([nH]c3ccccc23)C(c2ccccc2)N1 (stereo not given) | 217 to 218
9 | Clc1cccc(Nc2n[nH]c3ncnc(NCc4ccccc4)c23)c1 | 216 to 218
10 | O=C(Nc1cccc2c(=O)cc(-c3nnn[nH]3)oc12)c1ccc2c(c1)CC(COCc1ccccc1)O2 (stereo not given) | 200 to 202
11 | CCOC(=O)N1CCC(N(C)C(=O)c2ccc(Cl)c(Cl)c2)C12CCCCC2 (stereo not given) | 57 to 60
12 | CCCC=CCOc1ccc(C(C)(C)CC(C)(C)C)cc1-n1nc2ccccc2n1 | 80 to 81
13 | CCNC(=O)c1ccc(C=C(C)c2ccc3c(c2)C(C)(C)CCO3)cc1 | 161 to 163
14 | CCOC(=O)CCCOc1cccc(Oc2nc(OC)cc(OC)n2)c1C=O | 96
15 | CC(C)n1nc(-c2sc(NC(=O)Cn3ccnc3)nc2-c2ccccc2)ccc1=O | 160 to 161
16 | CNC(=O)CS(=O)(=O)c1ccccc1 | 106 to 109
17 | Clc1ccc2c(c1)C(c1ccccc1)=NCc1nnc(C(Cl)Cl)n1-2 | 193 to 196
18 | O=C(O)c1cn(C2CC2)c2nc(N3Cc4cccc(CO)c4C3)c(F)cc2c1=O | > 300
19 | COC(=O)c1ccc2c(c1)C(=O)C(C=C1C=CC=C(C(=O)O)C1)O2 (stereo not given) | 280
20 | NC(C(=O)N(N)c1ccc2ccccc2c1)c1ccccc1 (stereo not given) | 176 to 178
21 | CCOC(=O)c1c(O)nc2c(C(F)(F)F)cccc2c1O | 190
22 | Cc1cnc(C#N)c(C)c1[N+](=O)[O-] | 66 to 71
23 | CC(=O)Oc1cccc(C(=O)NCCO[N+](=O)[O-])c1 | 89 to 91

Row | Compound | melting point [°C]
24 | Cc1ccc(S(=O)(=O)N2CC[C@@H](O)C2)cc1 | 108 to 112
25 | C=C(Oc1cc(-n2c(=O)cc(C(F)(F)F)n(N)c2=O)c(F)cc1Cl)C(=O)OC | 66
26 | O=C1Cc2cc3ccccc3nc2N1 | 261
27 | CC(C)Oc1ccc(OCc2ccccc2)cc1-c1nc2cc(CNCC(=O)O)cnc2[nH]1 | 182 to 184
28 | CCCOc1ccc(S(C)(=O)=O)cc1C(=O)Nc1c(CC)n[nH]c1C(N)=O | 209 to 210
29 | COc1ccc(OCC(O)CCCl)cc1 (stereo not given) | 65 to 68
30 | CC(C)(C)Sc1cnn(-c2c(Cl)cc(C(F)(F)F)cc2Cl)c1N | 129
31 | COc1cc(C)cc2c(=O)oc3c(c12)C(=O)c1cccc(O)c1C3=O | 282 to 292
32 | COc1ccc(CCC(=O)NNC(=O)c2ccc3ncsc3c2)cc1C(F)(F)F | 208 to 209
33 | O=C(O)CCC(=O)N1CCc2cc(S(=O)(=O)N3CCN(c4ccc(C(=O)O)cc4)CC3)ccc21 | 255 to 257
34 | CC1Sc2c(C(=O)O)c(=O)c3cc(F)c(N4CCC(N)C4)c(Cl)c3n21 (stereo not given) | > 300
35 | Oc1cccc(-c2ccc(OC[C@H](O)CCc3cccnc3)cc2)c1 | 169
36 | CS(=O)(=O)c1ccc(-c2[nH]c(CO)nc2-c2ccc(F)cc2)cc1 | 115 to 117
37 | COc1ccc(-c2nc(-c3ccccc3)ccc2C(=O)O)cc1OC | 178
38 | OC1(c2ccc(F)cc2)CCN(Cc2ccnc(-c3ccccc3)c2)CC1 | 149 to 151
39 | CC(C)(C)Oc1cccc(Cl)c1C(=O)O | 117 to 119
40 | CCCCc1nn(-c2ccc(C(F)(F)F)cn2)cc1CO | 110 to 111
41 | CCNC(=O)Nc1ccc(-c2nc3n(Cc4c(F)cccc4F)cc(C(=O)OC(C)C)c(=O)n3c2CN(C)Cc2ccccc2)cc1 | 198 to 200
42 | CC(Cn1ncnn1)n1nnc2cc3c(=O)n(CC4CC4)nnc3cc2c1=O (stereo not given) | 134 to 136
43 | NC(=O)N1CCCC1COc1cncc(Cl)c1 (stereo not given) | 95
44 | COc1ccc(-c2[nH]nc3c2C(=O)c2c(NC(=O)CN4CCNCC4)cccc2-3)cc1 | 277
45 | c1ccc2c(c1)CC(CN1CCC(c3c[nH]c4ccccc34)CC1)C2 | 146 to 147
46 | Cc1cc(C(=O)OC(C)(C)C)ccc1[N+](=O)[O-] | 56 to 58

Row | Compound | melting point [°C]
47 | Cc1ccc(NCc2ccc(/C=C/C(=O)O)cc2)cc1Nc1nccc(-c2cccnc2)n1 | 234 to 242
48 | C=CCN1CCC23c4c5ccc(O)c4OC2C(=NO)CCC3(O)C1C5 (stereo not given) | 119
49 | CNC(=O)c1ccc(NCC(=O)O)cc1 | 234
50 | Cc1cn(Nc2ccncc2)c2ccc(OCc3ccccc3)cc12 | 168 to 170
51 | CCCCCCCCCCCCCCCc1[nH]c2ccc(C(=S)OCC)cc2c1C | 55 to 60
52 | CC(C)(O)Cn1c(CCO)nc2c(N)nc3cccnc3c21 | 194 to 195
53 | Cc1c(I)c(=O)n(C2CCCC2)c2nc(Nc3ccc(N4CCNCC4)cn3)ncc12 | > 240
54 | O=C(O)C1=Cc2cc(Cl)ccc2N(Cc2ccc([N+](=O)[O-])cc2)C1C(F)(F)F (stereo not given) | 225 to 228
55 | Cc1nn(C2=NNN(S)C2N)c2c1CCCC2 (stereo not given) | 201 to 202
56 | CCOC(=O)c1cc(=O)c2c(OCC(O)COc3cccc(O)c3C(C)=O)cccc2o1 (stereo not given) | 145 to 148
57 | C=C1CC2C(CCC3(C)C2CCC3(OC(C)=O)C(C)=O)C2(C)CCC(=O)C=C12 (stereo not given) | 234 to 236
58 | Cc1ccc(N2N=C3c4cc(C(=O)CCl)sc4CCC3CC2=O)cc1 (stereo not given) | 169 to 171
59 | COc1ccc(Cc2cc3c(cc2OC)OCO3)cc1 | 56 to 57
60 | Cc1c(C(=O)Nc2ccc(N3CCN(C4CCOCC4)CC3)c(C#N)c2)cnn1-c1ccccc1 | 227
61 | Cc1nc2c(NC(=O)C(C)(C)C)c(C(=O)C=Cc3ccccc3)ccn2c1C | 108 to 110
62 | COc1cccc(C(=O)N(C)Cc2cccc3c2C(=O)N(C2CCC(=O)NC2=O)C3=O)c1 (stereo not given) | 216 to 218
63 | Cn1c(=O)c2c(ncn2CCC(O)N2CCN(C(=O)c3ccco3)CC2)n(C)c1=O (stereo not given) | 161 to 163
64 | CCCCCCCCCCCCN=C1SC(=CC(=O)O)C(=O)N1CCCCCCCCCCCC | 71 to 72
65 | CCCCc1ncc(/C=C(\Cc2ccc(OC)s2)C(=O)O)n1Cc1ccccc1Cl | 184 to 186
66 | CC#Cc1ncn2c1CN(C)C(=O)c1c(Cl)cccc1-2 | 243 to 244
67 | O=C(O)c1ccnc(-c2cccc3cc(Cc4cccc(C(F)(F)F)c4)sc23)c1 | 231 to 232
68 | CCCOC(C)c1ccc(-c2ccc(OCc3ccccc3)cc2)cc1 (single isomer, unassigned; (+)) | 106 to 108

Further lines, results first:

Row | melting point [°C] | Compound
69 | 159 to 161 | COc1ccc(OC)c(CC(=O)c2c(O)c3cccnc3n(-c3ccccc3)c2=O)c1
70 | 191 to 193 | CNc1nc(C)c(-c2ccnc(Nc3ccc(Cl)c(CO)c3)n2)s1
71 | 128 to 132 | Cn1nc(-c2ccc3c(c2)OCO3)c(-c2ccncc2)c1NC(=O)Cc1ccccc1
72 | 271 to 273 | COc1cc2cc3ncc(C#N)c(Nc4ccc(Cl)cc4Cl)c3cc2cc1OC
73 | 158 to 160 | COc1cc(C)nc(NC(=O)NS(=O)(=O)c2ccccc2N=NN(C)C)n1
74 | 144 to 146 | O=C(NC(=O)N1C(=O)Cc2ccccc21)C1CCCCC1
75 | 78 to 79 | CC(C)(C)OC(=O)N[C@@H]1C[C@H](CO)[C@@H](OC(=O)c2ccccc2)[C@H]1OC(=O)c1ccccc1
76 | 212 to 214 | CC(=O)NCC1CN(c2ccc(N3CCN(c4nnc(C)o4)CC3)c(F)c2)C(=O)O1 (stereo not given)
77 | 186 to 187 | CCOc1nc2cccc(C(=O)OC)c2n1Cc1ccc(-c2ccccc2-c2nc(=O)o[nH]2)cc1
78 | 120 to 121 | CC(=O)SCC(CC(C)C)C(=O)NCC(=O)O (stereo not given)
79 | 227 | CN1C(=O)c2cnc(-c3ccccc3)nc2Nc2ccccc21
80 | > 300 | N#Cc1c[nH]c2cc(-c3ccccc3)sc2c1=O
81 | 98 to 99 | O=[N+]([O-])c1cccc(S(=O)(=O)NC(CO)(CO)CO)c1
82 | 47 to 48 | CCCC[C@H]1[C@@H](O)CC[C@@]2(C)CC[C@@H]3C[C@]12OC3(C)C
83 | 109 to 111 | CCCCN(Cc1ccc(-c2ccccc2-c2nnn[nH]2)cc1)c1ncncc1C(=O)OCC
84 | 157 to 158 | CCCN(C(=O)COc1c(OC)cccc1OC)C1CCc2c(ccc(O)c2O)C1 (stereo not given)

Row | melting point [°C] | Compound
85 | 256 | Cc1cncn1-c1ccc(O)cc1
86 | 178 to 180 | CCN(CC)CCNC(=O)c1cnc(-c2ccccc2)nc1S
87 | 115 to 118 | O=C(C=Cc1ccc(Cl)cc1)C(CC=Cc1ccc(Cl)cc1)c1ccccc1 (stereo not given)
88 | 138 to 139 | CCn1cc(CC(=O)O)c(OCCCn2cc(C(=O)NCc3ccc(Cl)cc3Cl)c(OC(C)C)n2)n1
89 | 109 to 110 | COC(=O)CC(=O)c1cnccn1
90 | 116 | COC(=O)C1(C)OCC(c2ccccc2)(c2ccccc2)CO1
91 | 101 to 103 | O=C(O)c1ccc(Sc2ccccc2)cc1
92 | 165 to 167 | CC(C)(C)c1cc(N=C=O)no1
93 | 122 to 125 | Cc1cc(-n2cncn2)ccc1N
94 | 78 to 82 | COc1cc(C)nc(NCSc2ccc(Cl)cc2)n1
95 | 88 to 90 | O=C(NCCc1c[nH]c2ccccc12)OCC1CC1
96 | 169 to 170 | COc1cc(OC)c2cnc(-c3cc(C)c(OCCO)c(C)c3)nc2c1
97 | 134 | O=C1N(CO)CCN1C(c1ccccc1)c1ccccc1
98 | 125 to 126 | Cc1cc(C)n2nc(S(=O)(=O)Cl)nc2c1
99 | 191 to 193 | O=C(CCc1ccccc1)Nc1c(O)cc(-c2ccccc2)oc1=O
100 | 157 | Cc1cc(-c2cccc([N+](=O)[O-])c2)c2ccccc2n1
